According to the supplement of paper PMC11061612:

Tests used:
Experiment in all cases: combination Emax (second highest fraction inhibited in the dose matrix, 72 h); higher = more inhibition; extreme values may be limits of the assay
[1] = system: CAL-54 (Kidney Carcinoma)
How it was run: (§1)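 Bliss excess equals the observed combination effect minus the expected value EA + EB − EA·EB, where EA and EB are the effects of each agent alone. Combination Emax is the second-highest inhibition within the matrix. Inhibition was scaled from CellTiter-Glo 2.0 luminescence, with 0 set by vehicle wells and 1 by blank wells, after 72 hours of two-drug dosing of cells plated in 1536-well plates.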

[2] = system: CAPAN-1 (Pancreatic Carcinoma)
How it was run: as §1

[3] = system: EN (Endometrial Carcinoma)
How it was run: as §1

[4] = system: HARA (Squamous Cell Lung Carcinoma)
How it was run: as §1

[5] = system: HDLM-2 (Hodgkin's Lymphoma)
How it was run: as §1

HMV-II (Melanoma) = system: HMV-II (Melanoma)
How it was run: as §1

[6] = system: HO-1-u-1 (Oral Cavity Carcinoma)
How it was run: as §1

[7] = system: K5 (Thyroid Gland Carcinoma)
How it was run: as §1

[8] = system: LU-139 (Small Cell Lung Carcinoma)
How it was run: as §1

[9] = system: LoVo (Colorectal Carcinoma)
How it was run: as §1

[10] = system: MDA-MB-468 (Breast Carcinoma)
How it was run: as §1

Mewo (Melanoma) = system: Mewo (Melanoma)
How it was run: as §1

NB14 (Neuroblastoma) = system: NB14 (Neuroblastoma)
How it was run: as §1

NCI-H2461 (Mesothelioma) = system: NCI-H2461 (Mesothelioma)
How it was run: as §1

NCI-H2795 (Mesothelioma) = system: NCI-H2795 (Mesothelioma)
How it was run: as §1

[11] = system: NCI-H69 (Small Cell Lung Carcinoma)
How it was run: as §1

[12] = system: PCI-30 (Head and Neck Carcinoma)
How it was run: as §1

SH-4 (Melanoma) = system: SH-4 (Melanoma)
How it was run: as §1

[13] = system: SU-DHL-6 (B-Cell Non-Hodgkin's Lymphoma)
How it was run: as §1

[14] = system: SW1116 (Colorectal Carcinoma)
How it was run: as §1

SMILES | combination Emax [1] | combination Emax [2] | combination Emax [3] | combination Emax [4] | combination Emax [5] | combination Emax (HMV-II (Melanoma)) | combination Emax [6] | combination Emax [7] | combination Emax [8] | combination Emax [9] | combination Emax [10] | combination Emax (Mewo (Melanoma)) | combination Emax (NB14 (Neuroblastoma)) | combination Emax (NCI-H2461 (Mesothelioma)) | combination Emax (NCI-H2795 (Mesothelioma)) | combination Emax [11] | combination Emax [12] | combination Emax (SH-4 (Melanoma)) | combination Emax [13] | combination Emax [14]
CN(CCO)CC[C@H](CSc1ccccc1)Nc1ccc(S(=O)(=O)NC(=O)c2ccc(N3CCC([C@@H](O)c4ccccc4-c4ccc(Cl)cc4)CC3)cc2)cc1S(=O)(=O)C(F)(F)F [AZD4320] + CC(=O)O[C@H]1C(=O)[C@@]2(C)[C@H]([C@H](OC(=O)c3ccccc3)[C@]3(O)C[C@H](OC(=O)[C@H](O)[C@@H](NC(=O)c4ccccc4)c4ccccc4)C(C)=C1C3(C)C)[C@]1(OC(C)=O)CO[C@@H]1C[C@@H]2O [Paclitaxel] (first compound max 1 µM, 7x7, partner max 3 µM) | 0.773 | 0.874 | 0.757 | 0.999 | 1 | 0.853 | 0.965 | 0.94 | 0.964 | 0.746 | 0.881 | 0.78 | 1 | 0.75 | 0.837 | 0.991 | 0.875 | 0.531 | 1 | 0.586
C[C@@H](Oc1cc(-c2cnn(C3CCNCC3)c2)cnc1N)c1c(Cl)ccc(F)c1Cl [Crizotinib] + CC1=C(C(=CC=C1)Cl)NC(=O)C2=CN=C(S2)NC3=CC(=NC(=N3)C)N4CCN(CC4)CCO [Dasatinib] (first compound max 10 µM, 7x7, partner max 2 µM) | 0.888 | 0.285 | 0.389 | 0.757 | 0.226 | 0.768 | 0.863 | 0.81 | 0.688 | 0.505 | 0.776 | 0.481 | 0.976 | 0.594 | 0.918 | 0.771 | 0.721 | 0.556 | 1 | 0.619
C[C@@H]1COCCN1c1cc(C2([S@](C)(=N)=O)CC2)nc(-c2ccnc3[nH]ccc23)n1 [AZD6738] + C1CC(C1)(C(=O)[O-])C(=O)[O-].N.N.[Pt+2] [Carboplatin] (first compound max 10 µM, 7x7, partner max 10 µM) | 0.695 | 0.384 | 0.537 | 0.853 | 0.472 | 0.454 | 0.75 | 0.517 | 0.258 | 0.8 | 0.583 | 0.526 | 0.952 | 0.646 | 0.573 | 0.373 | 0.45 | 0.277 | 0.285 | 0.247
C[C@@H](Oc1cc(-c2cnn(C3CCNCC3)c2)cnc1N)c1c(Cl)ccc(F)c1Cl [Crizotinib] + Cn1cnc2c(F)c(Nc3ccc(Br)cc3Cl)c(C(=O)NOCCO)cc21 [Selumetinib] (first compound max 10 µM, 7x7, partner max 10 µM) | 0.565 | 0.571 | 0.401 | 0.59 | 0.193 | 0.934 | 0.639 | 0.682 | 0.684 | 0.557 | 0.673 | 0.541 | 0.966 | 0.56 | 0.918 | 0.621 | 0.238 | 0.91 | 1 | 0.518
C[C@@H]1COCCN1c1cc(C2([S@](C)(=N)=O)CC2)nc(-c2ccnc3[nH]ccc23)n1 [AZD6738] + Nc1ccn([C@@H]2O[C@H](CO)[C@@H](O)C2(F)F)c(=O)n1 [Gemcitabine] (first compound max 10 µM, 7x7, partner max 0.3 µM) | 0.819 | 0.684 | 0.66 | 0.927 | 0.77 | 0.724 | 0.926 | 0.778 | 0.841 | 0.846 | 0.767 | 0.768 | 1 | 0.714 | 0.874 | 0.851 | 0.795 | 0.623 | 0.945 | 0.553
O=C(c1cc(Cc2n[nH]c(=O)c3ccccc23)ccc1F)N1CCN(C(=O)C2CC2)CC1 [Olaparib] + Cc1c2c(nn1C)CSCc1cc(n(C)n1)CSc1cc(c3ccccc3c1)OCCCc1c(C(=O)O)n(C)c3c-2c(Cl)ccc13 [AZD5991] (first compound max 10 µM, 7x7, partner max 1 µM) | 0.208 | 0.366 | 0.476 | 0.277 | 0.937 | 0.0925 | 0.239 | 0.0887 | 0.132 | 0.162 | 0.42 | 0.161 | 0.595 | 0.127 | 0.748 | 0.239 | 0.103 | 0.155 | 1 | 0.0456
C=CCn1c(=O)c2cnc(Nc3ccc(N4CCN(C)CC4)cc3)nc2n1-c1cccc(C(C)(C)O)n1 [AZD1775] + Nc1ccn([C@@H]2O[C@H](CO)[C@@H](O)C2(F)F)c(=O)n1 [Gemcitabine] (first compound max 1 µM, partner max 0.3 µM) | 0.787 | 0.697 | 0.581 | 0.912 | 0.763 | 0.632 | 0.693 | 0.568 | 0.795 | 0.808 | 0.733 | 0.583 | 1 | 0.63 | 0.785 | 0.611 | 0.677 | 0.577 | 0.958 | 0.405
C[C@@H](Nc1cc(F)cc(F)c1)c1cc(C(=O)N(C)C)cc2c(=O)cc(N3CCOCC3)oc12 [AZD8186] + CC(=O)c1c(C)c2cnc(Nc3ccc(N4CCNCC4)cn3)nc2n(C2CCCC2)c1=O [Palbociclib] (first compound max 10 µM, 7x7, partner max 10 µM) | 0.755 | 0.247 | 0.387 | 0.589 | 0.333 | 0.469 | 0.378 | 0.509 | 0.115 | 0.736 | 0.571 | 0.449 | 0.536 | 0.447 | 0.53 | 0.558 | 0.353 | 0.233 | 0.999 | 0.175
N#Cc1cnc(Nc2cc(NC[C@H]3CNCCO3)c(C(F)(F)F)cn2)cn1 [SRA737] + Nc1ccn([C@@H]2O[C@H](CO)[C@@H](O)C2(F)F)c(=O)n1 [Gemcitabine] (first compound max 10 µM, 7x7, partner max 0.3 µM) | 0.792 | 0.657 | 0.634 | 0.902 | 0.854 | 0.64 | 0.826 | 0.689 | 0.832 | 0.789 | 0.752 | 0.788 | 1 | 0.683 | 0.804 | 0.778 | 0.736 | 0.577 | – | 0.649
CN(CCO)CC[C@H](CSc1ccccc1)Nc1ccc(S(=O)(=O)NC(=O)c2ccc(N3CCC([C@@H](O)c4ccccc4-c4ccc(Cl)cc4)CC3)cc2)cc1S(=O)(=O)C(F)(F)F [AZD4320] + C[C@@H](Nc1cc(F)cc(F)c1)c1cc(C(=O)N(C)C)cc2c(=O)cc(N3CCOCC3)oc12 [AZD8186] (first compound max 1 µM, 7x7, partner max 3 µM) | 0.593 | 0.552 | 0.354 | 0.361 | 0.847 | 0.383 | 0.369 | 0.619 | 0.943 | 0.6 | 0.789 | 0.332 | 1 | 0.337 | 0.779 | 0.885 | 0.321 | 0.308 | 1 | 0.275
CN(CCO)CC[C@H](CSc1ccccc1)Nc1ccc(S(=O)(=O)NC(=O)c2ccc(N3CCC([C@@H](O)c4ccccc4-c4ccc(Cl)cc4)CC3)cc2)cc1S(=O)(=O)C(F)(F)F [AZD4320] + Nc1ccn([C@@H]2O[C@H](CO)[C@@H](O)C2(F)F)c(=O)n1 [Gemcitabine] (first compound max 1 µM, 7x7, partner max 0.3 µM) | 0.838 | 0.828 | 0.337 | 0.8 | 0.935 | 0.619 | 0.563 | 0.688 | 0.961 | 0.7 | 0.799 | 0.451 | 0.993 | 0.641 | 0.872 | 0.946 | 0.743 | 0.642 | 0.998 | 0.184
O=C(c1cc(Cc2n[nH]c(=O)c3ccccc23)ccc1F)N1CCN(C(=O)C2CC2)CC1 [Olaparib] + CC1(C)CCC(CN2CCN(c3ccc(C(=O)NS(=O)(=O)c4ccc(NCC5CCOCC5)c([N+](=O)[O-])c4)c(Oc4cnc5[nH]ccc5c4)c3)CC2)=C(c2ccc(Cl)cc2)C1 [Venetoclax] (first compound max 10 µM, 7x7, partner max 1 µM) | 0.177 | 0.225 | 0.29 | 0.137 | 0.322 | 0.129 | 0.117 | 0.156 | 0.655 | 0.206 | 0.314 | 0.0337 | 0.465 | 0.203 | 0.284 | 0.614 | 0.173 | 0.148 | 0.719 | 0.097
